Measurements taken from US10093630B2, “Pyrazole compounds and methods of making and using same” (ABIDE THERAPEUTICS, INC., priority 2014, dated 2018).
Like-named read-outs stand apart in the source and are kept apart here.

Assays:
Assay in all cases: In vitro competitive activity-based protein profiling (gel-based, FP-Rh or HT-01 probe)
Type in all cases: biochemical
ABHD6 = molecular target: T1, ABHD6 (Mus musculus, UniProt Q8R2Y0); conditions: for inhibition at 1 µM: 1 μM inhibitor, read-out: % Inhibition at 1 μM, C = ABHD6; for inhibition at 10 µM: 10 μM inhibitor, read-out: % Inhibition at 10 μM, C = ABHD6; for IC50: mouse brain membrane fraction or cell lysates, 30 min preincubation at 37° C., read-out: Mouse (IC50 value, nM) ABHD6
T1 construct: Proteomes (mouse brain membrane fraction or cell lysates); from tissue; host or cells: mouse brain membrane fraction (or cell lysates, not specified)
T1 sequence (Q8R2Y0 1-336): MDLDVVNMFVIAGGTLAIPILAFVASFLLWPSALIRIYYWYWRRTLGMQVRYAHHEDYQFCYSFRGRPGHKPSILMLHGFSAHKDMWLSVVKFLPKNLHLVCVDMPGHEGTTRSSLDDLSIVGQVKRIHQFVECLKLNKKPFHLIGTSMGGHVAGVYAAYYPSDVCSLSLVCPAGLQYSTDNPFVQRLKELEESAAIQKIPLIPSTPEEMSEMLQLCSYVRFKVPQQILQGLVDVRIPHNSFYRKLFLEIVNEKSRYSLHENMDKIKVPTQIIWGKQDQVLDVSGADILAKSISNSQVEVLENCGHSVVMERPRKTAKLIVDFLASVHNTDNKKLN
Method in brief: (§1)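 Gel-based read-out: fluorescent band intensity after SDS-PAGE reflected remaining hydrolase activity. Inhibitors were preincubated 30 min at 37° C with 1.0 mg/mL mouse brain membrane or lysate proteome before a further 30 min at 37° C with FP-Rh or HT-01 probe.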

FAAH = molecular target: T2, FAAH (Mus musculus, UniProt O08914); conditions: for inhibition at 1 µM: 1 μM inhibitor, read-out: % Inhibition at 1 μM, B = FAAH; for inhibition at 10 µM: 10 μM inhibitor, read-out: % Inhibition at 10 μM, B = FAAH; for IC50: mouse brain membrane fraction or cell lysates, 30 min preincubation at 37° C., read-out: Mouse (IC50 value, nM) FAAH
T2 construct: Proteomes (mouse brain membrane fraction or cell lysates); from tissue; host or cells: mouse brain membrane fraction (or cell lysates, not specified)
T2 sequence (O08914 1-579): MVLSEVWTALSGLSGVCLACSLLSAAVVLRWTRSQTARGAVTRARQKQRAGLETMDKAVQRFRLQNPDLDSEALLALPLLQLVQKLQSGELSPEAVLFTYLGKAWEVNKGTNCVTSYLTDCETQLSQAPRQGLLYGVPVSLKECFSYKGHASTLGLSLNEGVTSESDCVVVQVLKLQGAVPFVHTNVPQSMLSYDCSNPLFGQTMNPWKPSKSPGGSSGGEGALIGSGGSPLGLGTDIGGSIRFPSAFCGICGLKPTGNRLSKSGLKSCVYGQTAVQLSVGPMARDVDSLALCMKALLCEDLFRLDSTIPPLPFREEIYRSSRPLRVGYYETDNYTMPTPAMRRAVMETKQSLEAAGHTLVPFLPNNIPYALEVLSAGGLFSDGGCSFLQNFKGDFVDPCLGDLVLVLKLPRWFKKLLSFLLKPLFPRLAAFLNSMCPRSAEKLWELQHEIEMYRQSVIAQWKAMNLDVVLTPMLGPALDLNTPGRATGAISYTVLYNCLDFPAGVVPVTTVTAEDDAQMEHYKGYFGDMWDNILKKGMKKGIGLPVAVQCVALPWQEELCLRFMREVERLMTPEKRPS
Method in brief: as §1

MAGL = molecular target: T3, MAGL (Mus musculus, UniProt O35678); conditions: for inhibition at 1 µM: 1 μM inhibitor; for inhibition at 10 µM: 10 μM inhibitor; for IC50: mouse brain membrane fraction or cell lysates, 30 min preincubation at 37° C., read-out: Mouse (IC50 value, nM) MAGL
T3 construct: Proteomes (mouse brain membrane fraction or cell lysates); from tissue; host or cells: mouse brain membrane fraction (or cell lysates, not specified)
T3 sequence (O35678 1-303): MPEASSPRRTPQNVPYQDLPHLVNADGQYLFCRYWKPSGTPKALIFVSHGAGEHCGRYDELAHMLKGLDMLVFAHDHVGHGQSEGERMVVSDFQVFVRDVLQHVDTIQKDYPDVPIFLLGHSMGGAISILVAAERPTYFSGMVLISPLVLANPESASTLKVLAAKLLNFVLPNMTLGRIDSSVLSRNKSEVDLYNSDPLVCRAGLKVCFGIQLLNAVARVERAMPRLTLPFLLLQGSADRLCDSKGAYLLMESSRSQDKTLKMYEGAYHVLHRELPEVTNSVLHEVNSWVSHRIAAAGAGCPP
Method in brief: as §1

PLA2G7 = molecular target: T4, PLA2G7 (Mus musculus, UniProt Q60963); conditions: for inhibition at 1 µM: 1 μM inhibitor, read-out: % Inhibition at 1 μM, D = PLA2G7; for inhibition at 10 µM: 10 μM inhibitor, read-out: % Inhibition at 10 μM, D = PLA2G7; for IC50: mouse brain membrane fraction or cell lysates, 30 min preincubation at 37° C.
T4 construct: Proteomes (mouse brain membrane fraction or cell lysates); from tissue; host or cells: mouse brain membrane fraction (or cell lysates, not specified)
T4 sequence (Q60963 22-440): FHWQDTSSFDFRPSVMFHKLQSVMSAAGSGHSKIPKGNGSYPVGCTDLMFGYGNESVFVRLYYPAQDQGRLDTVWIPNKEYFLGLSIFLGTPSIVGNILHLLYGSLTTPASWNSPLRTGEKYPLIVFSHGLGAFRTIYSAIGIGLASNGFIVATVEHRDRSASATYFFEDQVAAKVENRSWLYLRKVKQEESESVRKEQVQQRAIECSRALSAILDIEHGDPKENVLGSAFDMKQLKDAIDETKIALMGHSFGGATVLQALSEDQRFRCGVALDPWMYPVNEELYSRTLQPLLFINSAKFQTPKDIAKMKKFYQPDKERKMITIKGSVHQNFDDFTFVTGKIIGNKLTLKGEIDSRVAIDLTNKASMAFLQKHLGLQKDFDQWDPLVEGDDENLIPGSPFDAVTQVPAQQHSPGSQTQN
Method in brief: as §1

Structure (SMILES) | inhibition at 1 µM (ABHD6) | inhibition at 10 µM (ABHD6) | inhibition at 1 µM (FAAH) | inhibition at 10 µM (FAAH) | inhibition at 1 µM (MAGL) | inhibition at 10 µM (MAGL) | inhibition at 1 µM (PLA2G7) | inhibition at 10 µM (PLA2G7) | inhibition at 1 µM (ABHD6; gel-based competitive ABPP) | IC50 (ABHD6) | inhibition at 1 µM (FAAH; gel-based competitive ABPP) | IC50 (FAAH) | inhibition at 1 µM (MAGL; gel-based competitive ABPP) | IC50 (MAGL) | inhibition at 1 µM (PLA2G7; gel-based competitive ABPP) | IC50 (PLA2G7)
O=C(N1CCN(Cc2ccccc2)CC1)n1cccn1 [Example 7, (4-Benzylpiperazin-1-yl)(1H-pyrazol-1-yl)methanone] | < 25% | > 75% | < 25% | > 75% | > 75% | > 75% | < 25% | < 25% |  |  |  |  |  |  |  | 
Cc1cnn(C(=O)N2CCN(C(=O)OC(C)(C)C)CC2)c1 [Example 5, tert-Butyl 4-(4-methyl-1H-pyrazole-1-carbonyl)piperazine-1-carboxylate] | 25 to 75% | > 75% | < 25% | > 75% | < 25% | 25 to 75% | > 75% | > 75% |  |  |  |  |  |  |  | 
Cc1cnn(C(=O)N2CCN(Cc3ccc(-c4ccccc4)cc3)CC2)c1 [Example 23, (4-([1,1′-Biphenyl]-4-ylmethyl)piperazin-1-yl)(4-methyl-1H-pyrazol-1-yl)methanone] | 25 to 75% | > 75% | < 25% | 25 to 75% | > 75% | > 75% | < 25% | > 75% |  |  |  |  |  |  |  | 
COc1cc(-c2ccccc2)ccc1CN1CCN(C(=O)n2cc(Cl)cn2)CC1 [Example 141, (4-Chloro-1H-pyrazol-1-yl)(4-((3-methoxybiphenyl-4-yl)methyl)piperazin-1-yl)methanone] | > 75% | > 75% | > 75% | > 75% | > 75% | > 75% | < 25% | > 75% |  | 100 to 1000 nM |  | 100 to 1000 nM |  | < 100 nM |  | 
N#Cc1cnn(C(=O)NCCCCc2ccccc2)c1 [Example 36, 4-Cyano-N-(4-phenylbutyl)-1H-pyrazole-1-carboxamide] | < 25% | 25 to 75% | 25 to 75% | > 75% | < 25% | 25 to 75% | < 25% | < 25% |  |  |  |  |  |  |  | 
O=C(c1cnn(C(=O)N2CCN(Cc3ccncn3)CC2)c1)N1CCCCC1 [Example 73, Piperidin-1-yl(1-(4-(pyrimidin-4-ylmethyl)piperazine-1-carbonyl)-1H-pyrazol-4-yl)methanone] | < 25% | > 75% | < 25% | 25 to 75% | < 25% | < 25% | > 75% | > 75% |  |  |  |  |  |  |  | 
O=C(c1cnn(C(=O)N2CCN(Cc3cccnc3)CC2)c1)N1CCCCC1 [Example 71, Piperidin-1-yl(1-(4-(pyridin-3-ylmethyl)piperazine-1-carbonyl)-1H-pyrazol-4-yl)methanone] | 25 to 75% | > 75% | < 25% | 25 to 75% | < 25% | < 25% | > 75% | > 75% |  |  |  |  |  |  |  | 

Now from value to compound:

inhibition at 1 µM (ABHD6) | inhibition at 10 µM (ABHD6) | inhibition at 1 µM (FAAH) | inhibition at 10 µM (FAAH) | inhibition at 1 µM (MAGL) | inhibition at 10 µM (MAGL) | inhibition at 1 µM (PLA2G7) | inhibition at 10 µM (PLA2G7) | inhibition at 1 µM (ABHD6; gel-based competitive ABPP) | IC50 (ABHD6) | inhibition at 1 µM (FAAH; gel-based competitive ABPP) | IC50 (FAAH) | inhibition at 1 µM (MAGL; gel-based competitive ABPP) | IC50 (MAGL) | inhibition at 1 µM (PLA2G7; gel-based competitive ABPP) | IC50 (PLA2G7) | Structure (SMILES)
 |  |  |  |  |  |  |  | > 75% | < 100 nM | > 75% | < 100 nM | > 75% | < 100 nM | > 75% | < 100 nM | O=C(N1CCN(Cc2cccc(F)c2)CC1)n1cc(C(F)(F)F)cn1 [Example 269, (4-(3-Fluorobenzyl)piperazin-1-yl)(4-(trifluoromethyl)-1H-pyrazol-1-yl)methanone]
> 75% | > 75% | > 75% | > 75% | > 75% | > 75% | > 75% | > 75% |  | > 1000 nM |  | > 1000 nM |  | > 1000 nM |  | > 1000 nM | O=C(c1ccccc1)N1CCCN(C(=O)n2cc(C(F)(F)F)cn2)CC1 [Example 158, (4-Benzoyl-1,4-diazepan-1-yl)(4-(trifluoromethyl)-1H-pyrazol-1-yl)methanone]
 |  |  |  |  |  |  |  | < 25% | > 1000 nM | > 75% | < 100 nM | > 75% | 100 to 1000 nM | < 25% | > 1000 nM | CCN(Cc1ccc(N2CCOCC2)cc1)C(=O)n1cc(C(F)(F)F)cn1 [Example 264, N-Ethyl-N-(4-morpholinobenzyl)-4-(trifluoromethyl)-1H-pyrazole-1-carboxamide]
 |  |  |  |  |  |  |  | < 25% |  | < 25% |  | > 75% |  | < 25% |  | Cc1cnn(C(=O)N2CCCN(Cc3cccc(Oc4ccccc4)c3)CC2)c1 [Example 298, (4-Methyl-1H-pyrazol-1-yl)(4-(3-phenoxybenzyl)-1,4-diazepan-1-yl)methanone]
> 75% | > 75% | > 75% | > 75% | > 75% | > 75% | > 75% | > 75% |  |  |  |  |  |  |  |  | Cc1cccc(N2CCN(C(=O)n3cc(C(F)(F)F)cn3)CC2)c1 [Example 231, (4-m-Tolylpiperazin-1-yl)(4-(trifluoromethyl)-1H-pyrazol-1-yl)methanone]
> 75% |  | > 75% |  | > 75% |  | < 25% |  |  | < 100 nM |  | < 100 nM |  | < 100 nM |  | > 1000 nM | O=C(N1CCN(Cc2ccc(Cl)cc2)CC1)n1cc(Cl)cn1 [Example 226, (4-Chloro-1H-pyrazol-1-yl)(4-(4-chlorobenzyl)piperazin-1-yl)methanone]
 |  |  |  |  |  |  |  | < 25% | > 1000 nM | > 75% | < 100 nM | > 75% | > 1000 nM | < 25% | > 1000 nM | CCN(Cc1ccc(OC)cc1)C(=O)n1cc(C(F)(F)F)cn1 [Example 259, N-Ethyl-N-(4-methoxybenzyl)-4-(trifluoromethyl)-1H-pyrazole-1-carboxamide]
